By EC50 is commonly meant the concentration at which the effect is half-maximal.

The subject of the first assay is T. brucei rhodesiense YTAT1.1 strain. Nature of the assay: dose-response against T. b. rhodesiense cultures, Cell Titer Blue assay. The format is cell-based, Trypanosoma brucei rhodesiense. The note with it: ratio MOLT-4 EC50 / T. b. rhodesiense EC50. On the technique in general: Alamar Blue is a resazurin reagent that responds to reducing activity.
For `CN1CCN(c2ccc(C(=O)Nc3n[nH]c4c3CN(C(=O)Cc3cccc5ccccc35)C4)cc2)CC1` [Compound 8, 4-(4-Methylpiperazin-1-yl)-N-(5-(2-(naphthalen-1-yl)acetyl)-1,4,5,6-tetrahydropyrrolo[3,4-c]pyrazol-3-yl)benzamide], the “Selectivity MOLT/Tbr” value came out at 23.4.
On the same count and under the same terms, under `CN1CCN(c2ccc(C(=O)Nc3n[nH]c4c3CN(C(=O)Cc3c(F)ccc(F)c3F)C4)cc2)CC1` [Compound 9, 4-(4-Methylpiperazin-1-yl)-N-(5-(2-(2,3,6-trifluorophenyl)acetyl)-1,4,5,6-tetrahydropyrrolo[3,4-c]pyrazol-3-yl)benzamide] stands 6.9; under `CN1CCN(c2ccc(C(=O)Nc3n[nH]c4c3CN(C(=O)Cc3cccc(Cl)c3)C4)cc2)CC1` [Compound 11, N-(5-(2-(3-Chlorophenyl)acetyl)-1,4,5,6-tetrahydropyrrolo[3,4-c]pyrazol-3-yl)-4-(4-methylpiperazin-1-yl)benzamide], 6.9.
Same read-out and setting: with `Cc1ccc(C(C)C(=O)N2Cc3[nH]nc(NC(=O)c4ccc(N5CCN(C)CC5)cc4)c3C2)cc1` (centres unmarked) [Compound 13, 4-(4-Methylpiperazin-1-yl)-N-(5-(2-(p-tolyl)propanoyl)-1,4,5,6-tetrahydropyrrolo[3,4-c]pyrazol-3-yl)benzamide] the figure was 6.4; with `Cc1cc(C)cc(CC(=O)N2Cc3[nH]nc(NC(=O)c4ccc(N5CCN(C)CC5)cc4)c3C2)c1` [Compound 14, N-(5-(2-(3,5-Dimethylphenyl)acetyl)-1,4,5,6-tetrahydropyrrolo[3,4-c]pyrazol-3-yl)-4-(4-methylpiperazin-1-yl)benzamide], 4.3; with `Cc1ccc(C)c(CC(=O)N2Cc3[nH]nc(NC(=O)c4ccc(N5CCN(C)CC5)cc4)c3C2)c1` [Compound 15, N-(5-(2-(2,5-Dimethylphenyl)acetyl)-1,4,5,6-tetrahydropyrrolo[3,4-c]pyrazol-3-yl)-4-(4-methylpiperazin-1-yl)benzamide], 2.2.
Still for that read-out and setting: under `CN1CCN(c2ccc(C(=O)Nc3n[nH]c4c3CN(C(=O)Cc3cc(F)cc(F)c3F)C4)cc2)CC1` [Compound 16, 4-(4-Methylpiperazin-1-yl)-N-(5-(2-(2,3,5-trifluorophenyl)acetyl)-1,4,5,6-tetrahydropyrrolo[3,4-c]pyrazol-3-yl)benzamide] stands 1.2; under `Cc1[nH]c2ccccc2c1CC(=O)N1Cc2[nH]nc(NC(=O)c3ccc(N4CCN(C)CC4)cc3)c2C1` [Compound 17, N-(5-(2-(2-Methyl-1H-indol-3-yl)acetyl)-1,4,5,6-tetrahydropyrrolo[3,4-c]pyrazol-3-yl)-4-(4-methylpiperazin-1-yl)benzamide], 1.0; under `CN1CCN(c2ccc(C(=O)Nc3n[nH]c4c3CN(C(=O)Cc3cc(F)cc(F)c3)C4)cc2)CC1` [Compound 18, N-(5-(2-(3,5-Difluorophenyl)acetyl)-1,4,5,6-tetrahydropyrrolo[3,4-c]pyrazol-3-yl)-4-(4-methylpiperazin-1-yl)benzamide], 0.7.

The next assay has as its system 15 different cancer cell lines.
Experiment: not given
The note with it: read-out: mean EC50 averaged from 15 different cancer cell lines; cited from earlier work.
Turning to `CO[C@@H](C(=O)N1Cc2[nH]nc(NC(=O)c3ccc(N4CCN(C)CC4)cc3)c2C1)c1ccccc1` [Compound 1, danusertib], the EC50 was 123 nM.

The target in another assay is T1, TbAUK1 (Trypanosoma brucei brucei, UniProt Q384J7). The assay is described as follows: in vitro kinase assay with immunoprecipitated AU1-tagged TbAUK1. The format is biochemical. Particulars: tested at 500 nM; AU1-tagged TbAUK1 pull-down, MBP substrate.
Take `CO[C@@H](C(=O)N1Cc2[nH]nc(NC(=O)c3ccc(N4CCN(C)CC4)cc3)c2C1)c1ccccc1` [Compound 1, danusertib]: the “inhibition of TbAUK1 kinase activity” value is on record as “inhibited TbAUK1 to the same background level as hesperadin”.
The same measure, in the same setting: under `CCc1cccc(CC)c1NC(=O)N1Cc2[nH]nc(NC(=O)c3ccc(N4CCN(C)CC4)cc3)c2C1` [Compound 2, PHA-680632] stands “inhibited TbAUK1 to the same background level as hesperadin”.
Turning to `CCS(=O)(=O)Nc1ccc2c(c1)/C(=C(/Nc1ccc(CN3CCCCC3)cc1)c1ccccc1)C(=O)N2` [Hesperadin, hesperadin], the “inhibition of TbAUK1 kinase activity” value is reported as “completely inhibited TbAUK1”.

For another assay, the target named is T1, TbAUK1.
Experiment: not given
The note with it: at 200 nM; cited from earlier work.
As to `CCS(=O)(=O)Nc1ccc2c(c1)/C(=C(/Nc1ccc(CN3CCCCC3)cc1)c1ccccc1)C(=O)N2` [Hesperadin, hesperadin], the “inhibition of TbAUK1 kinase activity” value is on record as “to the level of a background kinase”.

The values are drawn from paper PMC3516633 (European journal of medicinal chemistry, 2012).
